Tests used:
Assay type in all cases: in vivo
[1] = test system: Bemisia tabaci (Cotton White Fly); assay: Example B1: Bemisia tabaci, sprayed cotton leaf discs, mortality; settings: foliar, 144 h, application rate of 200 ppm, adult white flies, 6 days after incubation
Description: Cotton leaf discs were placed on agar in 24-well microtiter plates and sprayed with aqueous test solutions prepared from 10,000 ppm DMSO stock solutions. After drying the leaf discs were infested with adult white flies. The samples were checked for mortality 6 days after incubation.

[2] = test system: Diabrotica balteata (Corn Root Worm); assay: Example B2: Diabrotica balteata, sprayed maize sprouts, mortality and growth inhibition; settings: 96 h, application rate of 200 ppm, L2 larvae, 4 days after infestation, read-out: effect in at least one of the two categories (mortality or growth inhibition)
Description: (§1) Maize sprouts placed onto an agar layer in 24-well microtiter plates were treated with aqueous test solutions prepared from 10,000 ppm DMSO stock solutions by spraying. After drying, the plates were infested with L2 larvae (6 to 10 per well). The samples were assessed for mortality and growth inhibition in comparison to untreated samples 4 days after infestation.

[3] = test system: Diabrotica balteata (Corn Root Worm); assay: Example B3: Diabrotica balteata, sprayed maize sprouts, mortality; settings: 96 h, application rate of 200 ppm, L2 larvae, 4 days after infestation
Description: as §1, with “mortality” for “mortality and growth inhibition in comparison to untreated samples”

[4] = test system: Euschistus heros (Neotropical Brown Stink Bug); assay: Example B5: Euschistus heros, sprayed soybean leaves, mortality; settings: 120 h, application rate of 200 ppm, N2 nymphs, 5 days after infestation
Description: Soybean leaves on agar in 24-well microtiter plates were sprayed with aqueous test solutions prepared from 10,000 ppm DMSO stock solutions. After drying the leaves were infested with N2 nymphs. The samples were assessed for mortality 5 days after infestation.

[5] = test system: Frankliniella occidentalis (Western Flower Thrips); assay: Example B7: Frankliniella occidentalis, sprayed sunflower leaf discs, mortality; settings: foliar, 168 h, application rate of 200 ppm, population of mixed ages, 7 days after infestation
Description: (§2) Sunflower leaf discs were placed on agar in 24-well microtiter plates and sprayed with aqueous test solutions prepared from 10,000 DMSO stock solutions. After drying the leaf discs were infested with a Frankliniella population of mixed ages. The samples were assessed for mortality 7 days after infestation.

[6] = test system: Plutella xylostella (Diamond Back Moth); assay: Example B12: Plutella xylostella, treated artificial diet, mortality; settings: 120 h, application rate of 200 ppm, L2 larvae, 5 days after infestation
Description: (§3) 24-well microtiter plates with artificial diet were treated with aqueous test solutions prepared from 10,000 ppm DMSO stock solutions by pipetting. After drying, the plates were infested with L2 larvae (10 to 15 per well). The samples were assessed for mortality 5 days after infestation.

[7] = test system: Plutella xylostella (Diamond Back Moth); assay: Example B13: Plutella xylostella, treated artificial diet, mortality and growth inhibition; settings: 120 h, application rate of 200 ppm, L2 larvae, 5 days after infestation, read-out: effect in at least one of the two categories (mortality or growth inhibition)
Description: as §3, with “mortality and growth inhibition in comparison to untreated samples” for “mortality”

[8] = test system: Spodoptera littoralis (Egyptian Cotton Leaf Worm); assay: Example B14: Spodoptera littoralis, sprayed cotton leaf discs, anti-feeding effect; settings: foliar, 72 h, application rate of 200 ppm, L1 larvae, 3 days after infestation
Procedure, shortened: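 Cotton leaf discs on agar sprayed with aqueous test solutions made from 10,000 ppm DMSO stocks, dried, then infested with five L1 larvae. Anti-feeding effect scored 3 days after infestation against untreated discs; control counted when anti-feedant effect exceeds untreated.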

[9] = test system: Spodoptera littoralis (Egyptian Cotton Leaf Worm); assay: Example B18: Spodoptera littoralis, compound in agar absorbed by lettuce roots, mortality, anti-feedant effect and growth inhibition; settings: 144 h, test rate of 12.5 ppm, uptake by lettuce roots, Spodoptera eggs, 6 days after infestation, read-out: effect in at least one of the three categories (mortality, anti-feeding, or growth inhibition)
Procedure, shortened: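 Compound from 10,000 ppm DMSO stock mixed into agar; lettuce seeds grew 7 days, taking compound up via roots into the lid plate. Cut leaves infested with Spodoptera eggs; mortality, anti-feedant effect and growth inhibition scored against untreated samples 6 days after infestation.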

[10] = test system: Spodoptera littoralis (Egyptian Cotton Leaf Worm); assay: Example B19: Spodoptera littoralis, compound in agar absorbed by lettuce roots, anti-feedant effect; settings: 144 h, test rate of 12.5 ppm, uptake by lettuce roots, Spodoptera eggs, 6 days after infestation, read-out: anti-feeding
Procedure, shortened: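 Compound from DMSO stock mixed into agar; lettuce seedlings took it up via roots over 7 days, then cut leaves were infested with Spodoptera eggs. Anti-feedant effect scored 6 days after infestation relative to untreated samples.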

[11] = test system: Spodoptera littoralis (Egyptian Cotton Leaf Worm); assay: Example B20: Spodoptera littoralis, compound in agar absorbed by lettuce roots, mortality; settings: 144 h, test rate of 12.5 ppm, uptake by lettuce roots, Spodoptera eggs, 6 days after infestation
Procedure, shortened: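 Compound from a 10,000 ppm DMSO stock mixed into agar; lettuce grown on it for 7 days to take up compound via roots, then leaves cut into lid plate. Spodoptera eggs applied on humid blotting paper; mortality scored 6 days after infestation.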

[12] = test system: Tetranychus urticae (Two-Spotted Spider Mite); assay: Example B21: Tetranychus urticae, sprayed bean leaf discs, mortality; settings: foliar, 192 h, application rate of 200 ppm, mixed population (mobile stages), 8 days after infestation
Description: Bean leaf discs on agar in 24-well microtiter plates were sprayed with aqueous test solutions prepared from 10,000 ppm DMSO stock solutions. After drying the leaf discs were infested with a mite population of mixed ages. The samples were assessed for mortality on mixed population (mobile stages) 8 days after infestation.

[13] = test system: Thrips tabaci (Onion Thrips); assay: Example B22: Thrips tabaci, sprayed sunflower leaf discs, mortality; settings: foliar, 144 h, application rate of 200 ppm, thrips population of mixed ages, 6 days after infestation
Description: as §2, with “10,000 ppm” for “10,000”, “thrips” for “Frankliniella”, “6” for “7”

CCS(=O)(=O)c1cc(C(C#N)CCBr)cnc1-c1cn2cnc(C(F)(F)F)cc2n1 (stereo not shown) [Compound P13, 4-bromo-2-[5-ethylsulfonyl-6-[7-(trifluoromethyl)imidazo[1,2-c]pyrimidin-2-yl]-3-pyridyl]butanenitrile]
≥ 80%: mortality at 200 ppm [1] | percent effect (mortality or growth inhibition) at 200 ppm [2] | mortality at 200 ppm [3] | mortality at 200 ppm [4] | mortality at 200 ppm [5] | mortality at 200 ppm [6] | percent effect (mortality or growth inhibition) at 200 ppm [7] | pest or weed control at 200 ppm [8] | percent effect (mortality, anti-feeding or growth inhibition) at 12.5 ppm [9] | pest or weed control at 12.5 ppm [10] | mortality at 12.5 ppm [11] | mortality at 200 ppm [12] | mortality at 200 ppm [13]

— patent US10645928B2, “Pesticidally active polycyclic derivatives with sulfur containing substituents” (Syngenta Participations AG, priority 2014, dated 2020)
